Values quoted from earlier work, collected in PMC11187573, “Identification of SARS-CoV-2 Mpro inhibitors through deep reinforcement learning for de novo drug design and computational chemistry approaches” (RSC Medicinal Chemistry, 2024).

system: Mpro; settings: ML dataset, Origin COVID_Moonshot; ref COVID Moonshot; cited from earlier work

SMILES | IC50
O=C(Nc1cncc2ccccc12)C(O)c1ccc(Cl)c(Cl)c1 (centres unmarked) [MAT-POS-fce787c2-4] | 2.01 µM
O=C(Nc1cncc2ccccc12)C(CO)c1ccc(Cl)c(Cl)c1 (centres unmarked) [MAT-POS-fce787c2-11] | 19.3 µM
O=C(Cc1cc(Cl)cc(Cc2ccn[nH]2)c1)Nc1cncc2ccccc12 [PET-UNK-372a2f82-1] | 7.22 µM
O=C(Cc1cncc2ccccc12)Nc1cccc(Cl)c1 [PET-UNK-8922bd3c-1] | 6.84 µM
O=C(Cc1cc(Cl)ccc1Cl)Nc1cncc2ccccc12 [PET-UNK-dd44aeb6-2] | 1.02 µM
O=C(Cc1cc(Cl)cc(-c2nnc[nH]2)c1)Nc1cncc2ccccc12 [RAL-THA-1d44ff04-8] | 5.3 µM
O=C(Cc1ccc(Cl)cc1)Nc1cncc2ccccc12 [RAL-THA-2d450e86-2] | 23.7 µM
Cc1ccc(CC(=O)Nc2cncc3ccccc23)cc1 [RAL-THA-2d450e86-3] | 58.4 µM
COc1ccc(CC(=O)Nc2cncc3ccccc23)cc1 [RAL-THA-2d450e86-4] | 72.5 µM
Cc1ccc(CC(=O)Nc2cncc3ccccc23)cc1Cl [RAL-THA-2d450e86-8] | 1.09 µM
O=C(Cc1ccc(Cl)c(F)c1)Nc1cncc2ccccc12 [RAL-THA-2d450e86-9] | 2.03 µM
COc1cccc(CC(=O)Nc2cncc3ccccc23)c1 [RAL-THA-2d450e86-11] | 30.5 µM
O=C(Cc1cc(F)cc(Cl)c1)Nc1cncc2ccccc12 [RAL-THA-2d450e86-14] | 0.383 µM
O=C(Cc1cccc(Cl)c1F)Nc1cncc2ccccc12 [RAL-THA-2d450e86-19] | 23.6 µM
O=C(Cc1cccc(C(F)(F)F)c1)Nc1cncc2ccccc12 [RAL-THA-2d450e86-31] | 6.94 µM
O=C(Cc1ccc(C(F)(F)F)cc1)Nc1cncc2ccccc12 [RAL-THA-2d450e86-32] | 24.8 µM

SMILES | IC50
O=C(Cc1ccncc1Cl)Nc1cncc2ccccc12 [RAL-THA-2d450e86-34] | 52.6 µM
Cc1ccccc1CC(=O)Nc1cncc2ccccc12 [RAL-THA-2d450e86-38] | 29.5 µM
COc1ccccc1CC(=O)Nc1cncc2ccccc12 [RAL-THA-2d450e86-39] | 35 µM
COCCN1CCC(C(=O)Nc2cncc3ccccc23)c2cc(Cl)ccc21 (centres unmarked) [RAL-THA-4aa06b95-7] | 0.564 µM
CNC(=O)c1cc(Cl)cc(CC(=O)Nc2cnccc2C)c1 [RAL-THA-6b94ceba-7] | 47.7 µM
Cc1ccncc1NC(=O)Cc1cc(Cl)cc(CNS(C)(=O)=O)c1 [RAL-THA-6b94ceba-12] | 24.4 µM
Cc1ccncc1NC(=O)Cc1cc(Cl)cc(S(N)(=O)=O)c1 [RAL-THA-6b94ceba-13] | 13.9 µM
O=C(Nc1cncc2ccccc12)C1CCN(Cc2ccccc2)c2ccc(Cl)cc21 (centres unmarked) [RAL-THA-8416115c-1] | 1.06 µM
O=C(Nc1cncc2ccccc12)C1CCN(Cc2ccn[nH]2)c2ccc(Cl)cc21 (centres unmarked) [RAL-THA-8416115c-6] | 0.803 µM
CN(C)C(=O)CN1CCC(C(=O)Nc2cncc3ccccc23)c2cc(Cl)ccc21 (centres unmarked) [RAL-THA-8416115c-9] | 2.54 µM
CNC(=O)Nc1ccc(N(Cc2ccsc2)C(=O)Cn2nnc3ccccc32)cc1 [ROB-IMP-e811baff-1] | 8.37 µM
Cc1ccncc1NC(=O)Cc1cc(C#N)cc(OC2CC(=O)N2)c1 (centres unmarked) [TRY-UNI-2eddb1ff-6] | 10.1 µM
O=C(Cc1ccc(Cl)c(Cl)c1)Nc1cncc2cnccc12 [VLA-UNK-82501c2c-1] | 1.85 µM
O=C(Cc1ccc(Cl)c(Cl)c1)Nc1cncc2ccncc12 [VLA-UNK-82501c2c-2] | 1.79 µM
N#Cc1cc(Cl)cc(NC(=O)Nc2cccnc2)c1 [WAR-XCH-eb7b662f-2] | 99 µM
Cc1ccncc1NC(=O)Cc1cc(Cl)cc(NS(C)(=O)=O)c1 [WIL-MOD-03b86a88-5] | 21.8 µM

system: SARS, SARS-CoV-2 and MERS Mpro; settings: Origin ChEMBL; ref ChEMBL; cited from earlier work

SMILES | IC50
O=c1cc(-c2ccc(O)cc2)oc2cc(O)cc(O)c12 [CHEMBL28, Oc(cc1)ccc1C(Oc1c2c(O)cc(O)c1)=CC2=O] | 3.02 µM
CC(Cc1ccc(O)c(O)c1)C(C)Cc1ccc(O)c(O)c1 (centres unmarked) [CHEMBL52, CC(Cc(cc1)cc(O)c1O)C(C)Cc(cc1)cc(O)c1O] | 2.59 µM
Cc1c(OCC(F)(F)F)ccnc1C[S+]([O-])c1nc2ccccc2[nH]1 (centres unmarked) [CHEMBL480, Cc(c(C[S+](c1nc(cccc2)c2[nH]1)[O-])ncc1)c1OCC(F)(F)F] | 0.995 µM
O=c1cc(-c2ccccc2)oc2cc(O)c(O)c(O)c12 [CHEMBL8260, Oc(cc(c1c2O)OC(c3ccccc3)=CC1=O)c2O] | 0.02 µM
CNC(=O)ON(C(C)=O)C(=O)NC [CHEMBL9116, CC(N(C(NC)=O)OC(NC)=O)=O] | 1.33 µM
Cc1ccc(S(=O)(=O)N[C@@H](Cc2ccccc2)C(=O)CCl)cc1 [CHEMBL60718, Cc(cc1)ccc1S(N[C@@H](Cc1ccccc1)C(CCl)=O)(=O)=O] | 1.37 µM
O=c1c(O)cccc2cc(O)c(O)c(O)c12 [CHEMBL66953, Oc(cc(C=CC=C(C1=O)O)c1c1O)c1O] | 4.58 µM
Nc1nc(S)c2ncn(C3OC(CO)C(O)C3O)c2n1 (centres unmarked) [CHEMBL119171, Nc(nc1S)nc2c1ncn2C(C1O)OC(CO)C1O] | 1.08 µM
CN(C)C(=S)SSC(=S)N(C)C [CHEMBL120563, CN(C)C(SSC(N(C)C)=S)=S] | 0.05 µM
O=C(O)CCCCCCCCCCCCCCc1ccc(I)cc1 [CHEMBL128251] | 2.25 µM
C=CC(=O)c1ccc2ccccc2c1 [CHEMBL154580, C=CC(c1cc2ccccc2cc1)=O] | 1.24 µM
C[N+]1(C)CCC(OC(=O)C(c2ccccc2)c2ccccc2)CC1 [CHEMBL168067, C[N+](C)(CC1)CCC1OC(C(c1ccccc1)c1ccccc1)=O] | 2.36 µM
Cc1coc2c1C(=O)C(=O)c1c-2ccc2c1CCCC2(C)C [CHEMBL187266, CC(C)(CCC1)c(cc2)c1c(C1=O)c2-c(occ2C)c2C1=O] | 1.6 µM
O=C1C(=O)N(Cc2cc3ccccc3s2)c2ccc(F)cc21 [CHEMBL187598, O=C(c(cc(cc1)F)c1N1Cc2cc(cccc3)c3s2)C1=O] | 4.82 µM
O=C1C(=O)N(Cc2cc3ccccc3s2)c2c1cccc2[N+](=O)[O-] [CHEMBL187717, [O-][N+](c(cccc1C2=O)c1N(Cc1cc(cccc3)c3s1)C2=O)=O] | 2 µM
O=C1C(=O)N(Cc2cc3ccccc3s2)c2ccc(I)cc21 [CHEMBL190743, O=C(c(cc(cc1)I)c1N1Cc2cc(cccc3)c3s2)C1=O] | 0.95 µM
O=C1C(Cl)=C(Cl)C(=O)C(Cl)=C1Cl [CHEMBL192627, O=C(C(Cl)=C(C1=O)Cl)C(Cl)=C1Cl] | 0.02 µM
O=C(CSc1nccc(-c2csc(-c3ccccc3)n2)n1)Nc1cc(Cl)cc(Cl)c1 [CHEMBL208732, O=C(CSc1nc(-c2csc(-c3ccccc3)n2)ccn1)Nc1cc(Cl)cc(Cl)c1] | 3 µM
O=C(Oc1ccc(S(=O)(=O)c2ccc(OC(=O)C(Cl)=C(Cl)Cl)cc2)cc1)C(Cl)=C(Cl)Cl [CHEMBL212454, O=C(C(Cl)=C(Cl)Cl)Oc(cc1)ccc1S(c(cc1)ccc1OC(C(Cl)=C(Cl)Cl)=O)(=O)=O] | 0.9 µM
Cc1cccc2c3c(ccc12)C1=C(C(=O)C3=O)[C@@H](C)CO1 [CHEMBL227075, C[C@@H]1C(C(C(c2c3ccc4c(C)cccc24)=O)=O)=C3OC1] | 3.05 µM

SMILES | IC50
CC(C)(C)OC(=O)NCCc1nnc(S(=O)(=O)Cc2ccc(Cl)cc2Cl)o1 [CHEMBL259018, CC(C)(C)OC(NCCc(o1)nnc1S(Cc(ccc(Cl)c1)c1Cl)(=O)=O)=O] | 4.22 µM
CC(C)(C)c1ccc(S(=O)(=O)/C=C/C#N)cc1 [CHEMBL270299, CC(C)(C)c(cc1)ccc1S(/C=C/C#N)(=O)=O] | 0.84 µM
Sc1nnc(Nc2ccccc2)s1 [CHEMBL289356, Sc1nnc(Nc2ccccc2)s1] | 0.39 µM
O=C(/C=C/c1ccc(O)c(O)c1)O[C@H](Cc1ccc(O)c(O)c1)C(=O)O [CHEMBL324842, OC([C@@H](Cc(cc1)cc(O)c1O)OC(/C=C/c(cc1)cc(O)c1O)=O)=O] | 3.86 µM
C[n+]1c2cc(N)ccc2cc2ccc(N)cc21 [CHEMBL354349, C[n+](c1c2)c(cc(cc3)N)c3cc1ccc2N] | 3.46 µM
NC(=O)c1ccc2c(c1)C(=O)C(=O)N2Cc1ccc2ccccc2c1 [CHEMBL358279, NC(c(cc1)cc(C2=O)c1N(Cc1cc3ccccc3cc1)C2=O)=O] | 0.245 µM
Cc1coc2c1C(=O)C(=O)c1c-2ccc2c(C)cccc12 [CHEMBL363535, Cc1coc(-c(ccc2c(C)cccc22)c2C2=O)c1C2=O] | 0.7 µM
O=C1C(=O)N(Cc2cc3ccccc3s2)c2c(Br)cccc21 [CHEMBL365134, O=C(c1cccc(Br)c1N1Cc2cc(cccc3)c3s2)C1=O] | 0.98 µM
O=C1C(=O)N(Cc2ccc3ccccc3c2)c2ccc(I)cc21 [CHEMBL383725, O=C(c(cc(cc1)I)c1N1Cc2cc3ccccc3cc2)C1=O] | 1.1 µM
O=C1C2CC=CCC2C(=O)N1SC(Cl)(Cl)Cl (centres unmarked) [CHEMBL388676, O=C(C(CC=CC1)C1C1=O)N1SC(Cl)(Cl)Cl] | 0.67 µM
Cc1ccc(S(=O)(=O)/C=C/C#N)cc1 [CHEMBL403183, Cc(cc1)ccc1S(/C=C/C#N)(=O)=O] | 0.82 µM
Oc1ccc2ccccc2c1SSc1c(O)ccc2ccccc12 [CHEMBL472940, Oc(ccc1ccccc11)c1SSc(c1ccccc1cc1)c1O] | 0.51 µM
CN(C)CCNc1nc2cc(O)ccc2c2c1C(=O)c1ccccc1-2 [CHEMBL488755, CN(C)CCNc1nc2cc(O)ccc2c(-c2c3cccc2)c1C3=O] | 2.99 µM
O=[N+]([O-])c1ccc(Sc2cccc[n+]2[O-])c2nonc12 [CHEMBL505670, [O-][N+](c(c1nonc11)ccc1Sc(cccc1)[n+]1[O-])=O] | 0.1 µM
O=[N+]([O-])c1cnc(Sc2nnc(O)n2-c2ccc3c(c2)OCCO3)s1 [CHEMBL508280, [O-][N+](c1cnc(Sc(n2-c(cc3)cc4c3OCCO4)nnc2O)s1)=O] | 2.05 µM
Nc1nnc(Sc2ncc([N+](=O)[O-])s2)s1 [CHEMBL510038, Nc1nnc(Sc2ncc([N+]([O-])=O)s2)s1] | 0.03 µM
CCOC(=O)c1c(N)sc(-c2ccccc2)c1C [CHEMBL566136, CCOC(c1c(N)sc(-c2ccccc2)c1C)=O] | 3.19 µM
CC(C)N(CCC(=O)c1ccc2ccccc2c1)Cc1ccccc1 [CHEMBL596674, CC(C)N(CCC(c1cc2ccccc2cc1)=O)Cc1ccccc1] | 0.58 µM
O=C(O)c1ccc(SSc2ccc(C(=O)O)cn2)nc1 [CHEMBL1161936, OC(c(cc1)cnc1SSc(cc1)ncc1C(O)=O)=O] | 0.24 µM
